Measured values published in patent US12077503B2, “Substituted cyclic amides and their use as herbicides” (FMC CORPORATION, priority 2015, dated 2024).

Experiments:
Type in all cases: in vivo
[1] = tested on: rice (Oryra sativa); assay: Test B flooded paddy test; conditions: Flood, 250 g ai/ha; 0 to 100 scale where 0 is no effect and 100 is complete control; 13 to 15 d
Experimental: (§1) Plant species in the flooded paddy test selected from rice (Oryra sativa), sedge, umbrella (small-flower umbrella sedge, Cyperus difformis), ducksalad (Heteranthera limosa), and barnyardgrass (Echinochloa crus-galli) were grown to the 2-leaf stage for testing. At time of treatment, test pots were flooded to 3 cm above the soil surface, treated by application of test compounds directly to the paddy water, and then maintained at that water depth for the duration of the test. Treated plants and controls were maintained in a greenhouse for 13 to 15 d, after which time all species were compared to controls and visually evaluated. Plant response ratings, summarized in Table B, are based on a scale of 0 to 100 where 0 is no effect and 100 is complete control. A dash (-) response means no test result.

[2] = tested on: ducksalad (Heteranthera limosa); assay: Test B flooded paddy test; conditions: Flood, 250 g ai/ha; 0 to 100 scale where 0 is no effect and 100 is complete control; 13 to 15 d
Experimental: as §1

[3] = tested on: sedge, umbrella (small-flower umbrella sedge, Cyperus difformis); assay: Test B flooded paddy test; conditions: Flood, 250 g ai/ha; 0 to 100 scale where 0 is no effect and 100 is complete control; 13 to 15 d
Experimental: as §1

[4] = tested on: barnyardgrass (Echinochloa crus-galli); assay: Test B flooded paddy test; conditions: Flood, 250 g ai/ha; 0 to 100 scale where 0 is no effect and 100 is complete control; 13 to 15 d
Experimental: as §1

[5] = tested on: ragweed (common ragweed, Ambrosia elatior); assay: Test A preemergence; conditions: for Plant response rating, Ragweed: 125 g ai/ha, preemergence, 0 to 100 scale (0 no effect, 100 complete control); for Ragweed plant response rating (0 to 100 scale): 0 is no effect, 100 is complete control
Excerpt: (§2) Seeds of plant species selected from barnyardgrass (Echinochloa crus-galli), Kochia (Kochia scoparia), ragweed (common ragweed, Ambrosia elatior), ryegrass, Italian (Italian ryegrass, Lolium multiflorum), crabgrass, large (Digitaria sanguinalis), giant foxtail (Setaria faberii), green foxtail (Setaria viridis), morningglory (Ipomoea spp.), pigweed (Amaranthus retroflexus), velvetleaf (Abutilon theophrasti), wheat (Triticum aestivum), and corn (Zea mays) were planted into a blend of loam soil and sand and treated preemergence with a directed soil spray using test chemicals formulated in anon-phytotoxic solvent mixture which included a surfactant.
(§3) At the same time, plants selected from these crop and weed species and also blackgrass (Alopecurus myosuroides), and Galium (catchweed bedstraw, Galium aparine) were planted in pots containing the same blend of loam soil and sand and treated with postemergence applications of test chemicals formulated in the same manner. Plants ranged in height from 2 to 10 cm and were in the one- to two-leaf stage for the postemergence treatment. Treated plants and untreated controls were maintained in a greenhouse for approximately 10 d, after which time all treated plants were compared to untreated controls and visually evaluated for injury. Plant response ratings, summarized in Table A, are based on a 0 to 100 scale where 0 is no effect and 100 is complete control. A dash (-) response means no test result.

[6] = tested on: Kochia (Kochia scoparia); assay: Test A preemergence; conditions: for Plant response rating, Kochia: 125 g ai/ha, preemergence, 0 to 100 scale (0 no effect, 100 complete control); for Kochia plant response rating (0 to 100 scale): 0 is no effect, 100 is complete control
Excerpt: as §2, §3

[7] = tested on: pigweed (Amaranthus retroflexus); assay: Test A preemergence; conditions: for Plant response rating, Pigweed: 125 g ai/ha, preemergence, 0 to 100 scale (0 no effect, 100 complete control); for Pigweed plant response rating (0 to 100 scale): 0 is no effect, 100 is complete control
Excerpt: as §2, §3

[8] = tested on: ryegrass, Italian (Italian ryegrass, Lolium multiflorum); assay: Test A preemergence; conditions: for Plant response rating, Ryegrass, Italian: 125 g ai/ha, preemergence, 0 to 100 scale (0 no effect, 100 complete control); for Ryegrass, Italian plant response rating (0 to 100 scale): 0 is no effect, 100 is complete control
Excerpt: as §2, §3

[9] = tested on: barnyardgrass (Echinochloa crus-galli); assay: Test A preemergence; conditions: for Plant response rating, Barnyardgrass: 125 g ai/ha, preemergence, 0 to 100 scale (0 no effect, 100 complete control); for Barnyardgrass plant response rating (0 to 100 scale): 0 is no effect, 100 is complete control
Excerpt: as §2, §3

[10] = tested on: giant foxtail (Setaria faberii); assay: Test A preemergence; conditions: for Plant response rating, Foxtail, Giant: 125 g ai/ha, preemergence, 0 to 100 scale (0 no effect, 100 complete control); for Foxtail, Giant plant response rating (0 to 100 scale): 0 is no effect, 100 is complete control
Excerpt: as §2, §3

[11] = tested on: blackgrass (Alopecurus myosuroides); assay: Test A postemergence
Excerpt: as §2, §3

[12] = tested on: ragweed (common ragweed, Ambrosia elatior); assay: Test A postemergence; conditions: for Ragweed plant response rating: visual injury rating on 0 to 100 scale (0 no effect, 100 complete control)
Excerpt: as §2, §3

[13] = tested on: Kochia (Kochia scoparia); assay: Test A postemergence; conditions: for Kochia plant response rating: visual injury rating on 0 to 100 scale (0 no effect, 100 complete control)
Excerpt: as §2, §3

[14] = tested on: corn (Zea mays); assay: Test A postemergence; conditions: for Corn plant response rating: visual injury rating on 0 to 100 scale (0 no effect, 100 complete control)
Excerpt: as §2, §3

[15] = tested on: pigweed (Amaranthus retroflexus); assay: Test A postemergence; conditions: for Pigweed plant response rating: visual injury rating on 0 to 100 scale (0 no effect, 100 complete control)
Excerpt: as §2, §3

[16] = tested on: ryegrass, Italian (Italian ryegrass, Lolium multiflorum); assay: Test A postemergence; conditions: for Ryegrass, Italian plant response rating: visual injury rating on 0 to 100 scale (0 no effect, 100 complete control)
Excerpt: as §2, §3

[17] = tested on: Galium (catchweed bedstraw, Galium aparine); assay: Test A postemergence; conditions: for Galium plant response rating: visual injury rating on 0 to 100 scale (0 no effect, 100 complete control)
Excerpt: as §2, §3

[18] = tested on: barnyardgrass (Echinochloa crus-galli); assay: Test A postemergence
Excerpt: as §2, §3

[19] = tested on: wheat (Triticum aestivum); assay: Test A postemergence; conditions: for Wheat plant response rating: visual injury rating on 0 to 100 scale (0 no effect, 100 complete control)
Excerpt: as §2, §3

[20] = tested on: giant foxtail (Setaria faberii); assay: Test A postemergence; conditions: for Foxtail, Giant plant response rating: visual injury rating on 0 to 100 scale (0 no effect, 100 complete control)
Excerpt: as §2, §3

[21] = 500 g ai/ha, postemergence, 0 to 100 scale, 0 no effect, 100 complete control
[22] = Postemergence, 125 g ai/ha, visual injury, 0 to 100 scale (0 no effect, 100 complete control), approx. 10 d
[23] = 125 g ai/ha, postemergence, approx. 10 d
[24] = Preemergence, 500 g ai/ha, visual injury approx. 10 d
[25] = 125 g ai/ha, postemergence, visual injury rating on 0 to 100 scale (0 no effect, 100 complete control), approx. 10 d

Structure (SMILES)	Plant response rating, Rice [1]	Plant response rating, Ducksalad [2]	Plant response rating, Sedge, Umbrella [3]	Plant response rating, Barnyardgrass [4]	Plant response rating, Ragweed [5]	Plant response rating, Kochia [6]	Plant response rating, Pigweed [7]	Plant response rating, Ryegrass, Italian [8]	Plant response rating, Barnyardgrass [9]	Plant response rating, Foxtail, Giant [10]	Plant response rating, Blackgrass [11, 21]	Plant response rating, Ragweed [12, 21]	Plant response rating, Kochia [13, 21]	Plant response rating, Corn [14, 21]	Plant response rating, Pigweed [15, 21]	Plant response rating, Ryegrass, Italian [16, 21]	Plant response rating, Galium [17, 21]	Plant response rating, Barnyardgrass [18, 21]	Plant response rating, Wheat [19, 21]	Plant response rating, Foxtail, Giant [20, 21]	also measured
COc1cccc(C2CNC(=O)C2C(=O)Nc2cccc(F)c2F)c1 (racemic) [Compound 383]	0	30	0	0	0	0	0	0	50	50	0	20	30	0	0	30	0	90	0	50	Ragweed plant response rating (0 to 100 scale) ([5]; Preemergence, 500 g ai/ha): 0; Kochia plant response rating (0 to 100 scale) ([6]; Preemergence, 500 g ai/ha): 20; Pigweed plant response rating (0 to 100 scale) ([7]; Preemergence, 500 g ai/ha): 0; Ryegrass, Italian plant response rating (0 to 100 scale) ([8]; Preemergence, 500 g ai/ha): 20; Barnyardgrass plant response rating (0 to 100 scale) ([9]; Preemergence, 500 g ai/ha): 90; Foxtail, Giant plant response rating (0 to 100 scale) ([10]; Preemergence, 500 g ai/ha): 70; Plant response rating, Blackgrass [11, 22]: 0; Ragweed plant response rating [12, 23]: 0; Kochia plant response rating [13, 23]: 0; Corn plant response rating [14, 23]: 0; Pigweed plant response rating [15, 23]: 0; Ryegrass, Italian plant response rating [16, 23]: 20; Galium plant response rating [17, 23]: 0; Plant response rating, Barnyardgrass [18, 22]: 70; Wheat plant response rating [19, 23]: 0; Foxtail, Giant plant response rating [20, 23]: 30
CN1CC(c2ccc(Cl)cc2)C(C(=O)Nc2ccccc2F)C1=O (stereo not drawn) [Compound 433]	0	98	0	70	70	70	20	20	90	90	40	50	50	30	20	60	50	90	60	80	Ragweed plant response rating (0 to 100 scale, 0 is no effect, 100 is complete control) [5, 24]: 60; Kochia plant response rating (0 to 100 scale, 0 is no effect, 100 is complete control) [6, 24]: 80; Pigweed plant response rating (0 to 100 scale, 0 is no effect, 100 is complete control) [7, 24]: 70; Ryegrass, Italian plant response rating (0 to 100 scale, 0 is no effect, 100 is complete control) [8, 24]: 60; Barnyardgrass plant response rating (0 to 100 scale, 0 is no effect, 100 is complete control) [9, 24]: 90; Foxtail, Giant plant response rating (0 to 100 scale, 0 is no effect, 100 is complete control) [10, 24]: 90; Blackgrass plant response rating [11, 25]: 30; Ragweed plant response rating [12, 23]: 0; Kochia plant response rating [13, 23]: 40; Corn plant response rating [14, 23]: 0; Pigweed plant response rating [15, 23]: 20; Ryegrass, Italian plant response rating [16, 23]: 30; Galium plant response rating [17, 23]: 50; Barnyardgrass plant response rating [18, 25]: 90; Wheat plant response rating [19, 23]: 30; Foxtail, Giant plant response rating [20, 23]: 80
CC(C)Oc1cccc(C2CNC(=O)C2C(=O)Nc2ccc(F)cc2F)c1 (racemic) [Compound 377]	25	100	0	60	0	50	50	20	90	90	70	60	60	50	30	50	70	90	50	80	Ragweed plant response rating (0 to 100 scale) ([5]; Preemergence, 500 g ai/ha): 0; Kochia plant response rating (0 to 100 scale) ([6]; Preemergence, 500 g ai/ha): 80; Pigweed plant response rating (0 to 100 scale) ([7]; Preemergence, 500 g ai/ha): 70; Ryegrass, Italian plant response rating (0 to 100 scale) ([8]; Preemergence, 500 g ai/ha): 60; Barnyardgrass plant response rating (0 to 100 scale) ([9]; Preemergence, 500 g ai/ha): 90; Foxtail, Giant plant response rating (0 to 100 scale) ([10]; Preemergence, 500 g ai/ha): 90; Plant response rating, Blackgrass [11, 22]: 50; Plant response rating, Ragweed [12, 22]: 40; Plant response rating, Kochia [13, 22]: 30; Plant response rating, Corn [14, 22]: 0; Plant response rating, Pigweed [15, 22]: 0; Plant response rating, Ryegrass, Italian [16, 22]: 30; Plant response rating, Galium [17, 22]: 60; Plant response rating, Barnyardgrass [18, 22]: 90; Plant response rating, Wheat [19, 22]: 0; Plant response rating, Foxtail, Giant [20, 22]: 80
